Experiment [1] has as its target T1, human α1B‐adrenoceptor (Homo sapiens, UniProt P35368).
T1 construct: expressed in transfected cells; host or cells: CHO-K1
T1 sequence (P35368 1-520): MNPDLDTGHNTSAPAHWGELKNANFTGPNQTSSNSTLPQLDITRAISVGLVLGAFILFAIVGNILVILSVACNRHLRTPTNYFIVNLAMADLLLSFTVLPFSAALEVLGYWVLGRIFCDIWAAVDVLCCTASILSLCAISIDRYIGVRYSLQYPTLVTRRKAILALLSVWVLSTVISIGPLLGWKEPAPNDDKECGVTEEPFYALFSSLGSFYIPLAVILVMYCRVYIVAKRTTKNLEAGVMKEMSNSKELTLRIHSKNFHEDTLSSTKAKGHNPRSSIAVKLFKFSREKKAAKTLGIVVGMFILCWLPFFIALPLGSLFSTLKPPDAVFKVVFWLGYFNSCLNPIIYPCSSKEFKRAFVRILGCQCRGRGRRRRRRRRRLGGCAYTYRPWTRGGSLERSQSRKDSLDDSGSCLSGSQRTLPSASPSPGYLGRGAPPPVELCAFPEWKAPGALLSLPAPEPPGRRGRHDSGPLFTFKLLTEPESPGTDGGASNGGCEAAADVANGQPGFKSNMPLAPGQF
Briefly: Intracellular free calcium mobilization, CHO‐α1B cells. Type of experiment: cell-based. The following applies: for EC50: CHO‐α1B cells, given as log EC50 (negative numbers), read-out: Intracellular calcium release Log EC50 (converted).

The target of experiment [2] is T2, human α1D‐adrenoceptor (full length) (Homo sapiens, UniProt P25100).
T2 construct: human α1D‐adrenoceptor (full length) were used; expressed in transfected cells; host or cells: CHO-K1
T2 sequence (P25100 1-572): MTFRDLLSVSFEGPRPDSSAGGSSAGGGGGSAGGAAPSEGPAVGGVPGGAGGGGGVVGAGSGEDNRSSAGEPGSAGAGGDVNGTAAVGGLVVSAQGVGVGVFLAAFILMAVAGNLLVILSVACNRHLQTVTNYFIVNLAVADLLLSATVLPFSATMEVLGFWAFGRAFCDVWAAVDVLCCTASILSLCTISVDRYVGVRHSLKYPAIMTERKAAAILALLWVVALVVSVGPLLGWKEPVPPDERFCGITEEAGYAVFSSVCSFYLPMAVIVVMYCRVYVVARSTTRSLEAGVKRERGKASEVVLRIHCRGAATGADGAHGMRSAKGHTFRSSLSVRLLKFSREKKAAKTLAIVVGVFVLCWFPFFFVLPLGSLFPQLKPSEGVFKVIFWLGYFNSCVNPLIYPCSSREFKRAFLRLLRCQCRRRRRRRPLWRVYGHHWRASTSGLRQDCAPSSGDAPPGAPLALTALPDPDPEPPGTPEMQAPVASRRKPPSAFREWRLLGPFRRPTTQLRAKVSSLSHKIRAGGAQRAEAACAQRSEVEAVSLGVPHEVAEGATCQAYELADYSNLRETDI
Briefly: ^3H‐prazosin whole‐cell radioligand binding, CHO‐α1D cells. Conditions: for Kd: CHO‐α1D cells.

The target of experiment [3] is T3, human α1A‐adrenoceptor (Homo sapiens, UniProt P35348).
T3 construct: expressed in transfected cells; host or cells: CHO-K1
T3 sequence (P35348 1-466): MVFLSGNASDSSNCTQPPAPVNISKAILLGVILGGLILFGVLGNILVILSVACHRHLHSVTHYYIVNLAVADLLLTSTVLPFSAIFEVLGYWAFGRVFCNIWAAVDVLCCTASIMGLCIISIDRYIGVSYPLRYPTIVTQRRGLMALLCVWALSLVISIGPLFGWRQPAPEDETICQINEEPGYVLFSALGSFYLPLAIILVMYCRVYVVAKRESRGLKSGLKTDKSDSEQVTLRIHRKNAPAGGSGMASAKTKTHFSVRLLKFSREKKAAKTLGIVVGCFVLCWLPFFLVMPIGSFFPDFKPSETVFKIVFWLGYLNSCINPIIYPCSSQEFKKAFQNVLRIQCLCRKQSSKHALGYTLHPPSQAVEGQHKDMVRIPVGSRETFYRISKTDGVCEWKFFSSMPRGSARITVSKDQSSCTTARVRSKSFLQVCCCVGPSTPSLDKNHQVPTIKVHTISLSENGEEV
The experiment can be described thus: ^3H‐cAMP accumulation, CHO‐α1A cells. In kind it is cell-based. The following applies: CHO‐α1A cells.

Experiment [4] addresses T1, human α1B‐adrenoceptor. Briefly: ^3H‐prazosin whole‐cell radioligand binding, CHO‐α1B cells. The following applies: CHO‐α1B cells.
The target in experiment [5] is T1, human α1B‐adrenoceptor. The experiment can be described thus: ERK1/2‐phosphorylation (Surefire Alphascreen), CHO‐α1B cells. Type of experiment: cell-based. Conditions: for EC50: CHO‐α1B cells, for bi‐phasic responses the initial stimulatory part, read-out: ERK1/2‐phosphorylation Log EC50 (converted).
Experiment [6] concerns the target T3, human α1A‐adrenoceptor. The experiment can be described thus: ^3H‐prazosin whole‐cell radioligand binding, CHO‐α1A cells. The following applies: for Kd: Log KD α1A, ^3H‐prazosin whole cell binding, CHO‐α1A cells, given as log KD (negative), mean ± SEM.
The target in experiment [7] is T3, human α1A‐adrenoceptor. The experiment can be described thus: Intracellular free calcium mobilization, CHO‐α1A cells. In kind it is cell-based. The following applies: for EC50: CHO‐α1A cells, given as log EC50 (negative), read-out: Intracellular calcium release Log EC50 (converted). Background: Calcium flux is commonly read through the fluorescence of an indicator in the cells.

In experiment [8] the target is T2, human α1D‐adrenoceptor (full length). Briefly: Intracellular free calcium mobilization, CHO‐α1D cells. Type of experiment: cell-based. Conditions: for Intracellular calcium release Log EC50: CHO‐α1D cells, log values given negative.
Experiment [9] deals with T1, human α1B‐adrenoceptor. Briefly: ^3H‐cAMP accumulation in the presence of 10 μM forskolin, CHO‐α1B cells. In kind it is cell-based. Conditions: CHO‐α1B cells; for cAMP accumulation (in presence of forskolin) Fold increase: fold increase of the forskolin response; for EC50: in presence of forskolin, read-out: cAMP accumulation (in presence of forskolin) Log EC50 (converted).

Experiment [10] has as its system parental CHO cell line without any transfected receptors. The experiment can be described thus: Forskolin‐stimulated cAMP accumulation, parent CHO cells without transfected receptors. Conditions: CHO cells without transfected receptors; in presence of forskolin. In kind it is cell-based, Chinese hamster.
Experiment [11] addresses T3, human α1A‐adrenoceptor. Briefly: ^3H‐cAMP accumulation in the presence of 10 μM forskolin, CHO‐α1A cells. The following applies: CHO‐α1A cells; for EC50: 10 μM forskolin, read-out: cAMP accumulation (in presence of forskolin) Log EC50 (converted); for cAMP accumulation (in presence of forskolin) Fold increase: fold increase of the forskolin response. In kind it is cell-based. In general terms: Changes in cAMP serve as a functional read-out for many G protein-coupled receptors.

The subject of experiment [12] is parental CHO cell line without any transfected receptors. Briefly: ERK1/2‐phosphorylation, parent CHO cells without transfected receptors. Type of experiment: cell-based, Chinese hamster.
Experiment [13] has as its target T3, human α1A‐adrenoceptor. The experiment can be described thus: ERK1/2‐phosphorylation (Surefire Alphascreen), CHO‐α1A cells. In kind it is cell-based. Conditions: for EC50: CHO‐α1A cells, 2–4 min, ^a bi‐phasic: initial stimulatory part, ^b also active in parent CHO cells, read-out: ERK1/2‐phosphorylation Log EC50 (converted).
In experiment [14] the target is T1, human α1B‐adrenoceptor. Briefly: ^3H‐cAMP accumulation, CHO‐α1B cells. Conditions: CHO‐α1B cells; for cAMP accumulation % forskolin: % forskolin maximum response; for EC50: read-out: cAMP accumulation Log EC50 (converted). In kind it is cell-based.
The target of experiment [15] is T2, human α1D‐adrenoceptor (full length). Briefly: ERK1/2‐phosphorylation (Surefire Alphascreen), CHO‐α1D cells. Type of experiment: cell-based. Conditions: for ERK1/2‐phosphorylation Log EC50: CHO‐α1D cells, log values given negative. On the technique in general: Alpha assays give light when donor and acceptor beads are brought close together.
Experiment [16] relates to parental CHO cell line without any transfected receptors. Briefly: Intracellular calcium mobilization, parent CHO cells without transfected receptors. Type of experiment: cell-based, Chinese hamster.
The mark [17] stands for this setting: 3H‐prazosin binding Log KD, whole‐cell binding (from Table 1), log values given negative.
Setting [18] is: Log KD α1D, ^3H‐prazosin whole cell binding, given as log KD (negative), mean ± SEM, 'early plateau' = specific binding not fully inhibited.
Setting [19] is: Log KD α1B, ^3H‐prazosin whole cell binding, given as log KD (negative), mean ± SEM.
Setting [20] is: Log KD, ^3H‐prazosin binding, whole‐cell binding (from Table 1), given as log KD (negative numbers).

The structures appear in SMILES notation.

As usually defined, the Kd is the concentration at which binding is half-saturated. Regarding `Brc1c(NC2=NCCN2)ccc2nccnc12` [Brimonidine], the entries for the “Intracellular calcium release % ionomycin” value (on human α1B‐adrenoceptor [1]; at human α1A‐adrenoceptor [7]; in experiment [8]) were 35.8 ± 2.4%, 47.8 ± 4.1% and “No response”, respectively. For the same compound, the “Log efficacy ratio KD /EC50” value at human α1B‐adrenoceptor [1] was determined as 2.33; on human α1A‐adrenoceptor [7] it was 1.57. Further, the EC50 is 97.7 nM on human α1B‐adrenoceptor [1]; 5750 nM at human α1A‐adrenoceptor [3] (5 h, read-out: cAMP accumulation Log EC50 (converted)); 724 nM at human α1B‐adrenoceptor [5]; 117 nM at human α1A‐adrenoceptor [7]; 105 nM on human α1B‐adrenoceptor [9]; 1580 nM on human α1A‐adrenoceptor [11]. Also, the EC50 at human α1A‐adrenoceptor [13] is 363 nM; on human α1B‐adrenoceptor [14], 129 nM. Moreover, the “Affinity selectivity ratio α1B vs α1D” value in experiment [2] came out at 3.9 fold. In addition, the dissociation constant Kd in experiment [2] (setting [17]) was 5370 nM; in [2] (setting [18]), 5370 nM; at human α1B‐adrenoceptor [4] (setting [19]), 20900 nM; on human α1B‐adrenoceptor [4] (setting [20]) it was 20900 nM; at human α1A‐adrenoceptor [6] it was 4370 nM. Also, the entries for the “cAMP accumulation % forskolin” value at human α1A‐adrenoceptor [3] (% of 10 µM forskolin response) and at human α1B‐adrenoceptor [14] were 17.8 ± 1.7% and 4.5 ± 1.6%, respectively. The “ERK1/2‐phosphorylation % PDBu” value on human α1B‐adrenoceptor [5] is recorded as 41.2 ± 6.2%; at human α1A‐adrenoceptor [13], 86.4 ± 3.6%; in [15], “No response”. Further, on human α1A‐adrenoceptor [6], the “Affinity selectivity ratio α1A vs α1B” value came out at 4.8 fold. In addition, the “Affinity selectivity ratio α1A vs α1D” value on human α1A‐adrenoceptor [6] stood at 1.2 fold. Further, the “Intracellular calcium release Log EC50” value in [8] is “No response”. Further, the “cAMP accumulation (in presence of forskolin) Fold increase” value at human α1B‐adrenoceptor [9] is 1.58 ± 0.07 fold; at human α1A‐adrenoceptor [11] it was 1.96 ± 0.05 fold. In [10], the “cAMP accumulation (in presence of forskolin) Log EC50” value is “No response”. The Emax at 100 µM in experiment [12] (Cricetulus griseus, CHO, read-out: ERK1/2-phosphorylation % PDBu at 100μM) was found to be 2.3 ± 1.7%. In [15], the “ERK1/2‐phosphorylation Log EC50” value is listed as “No response”.
On to `C[C@H](CCC(=O)O)C[C@H](C)C[C@H](C)C(=O)/C=C(\O)[C@H](C)C[C@H](C)C/C=C/[C@@H](C)[C@@H](O)[C@@H](C)[C@@H](O)C[C@@H]1CC[C@@](C)([C@H]2CC[C@@](C)([C@@H](C)O)O2)O1` [Ionomycin], for which, in experiment [16], the “Calcium response fold over basal” value was determined as 27.2 ± 1.2 fold over basal.
On to `Brc1c(NC2=NCCN2)ccc2nccnc12` [UK14304], for which the figures for the “Intracellular calcium release % ionomycin” value (on human α1B‐adrenoceptor [1]; on human α1A‐adrenoceptor [7]; in experiment [8]) were 27.5 ± 1.8%, 45.6 ± 1.6% and “No response”, respectively. For the same compound, the “Log efficacy ratio KD /EC50” value at human α1B‐adrenoceptor [1] is 2.26; on human α1A‐adrenoceptor [7], 1.64. Moreover, the EC50 at human α1B‐adrenoceptor [1] is 70.8 nM; at human α1B‐adrenoceptor [5], 316 nM; at human α1A‐adrenoceptor [7], 67.6 nM; on human α1B‐adrenoceptor [9], 97.7 nM; on human α1A‐adrenoceptor [11] it was 1380 nM; on human α1A‐adrenoceptor [13] it was 186 nM. The EC50 at human α1B‐adrenoceptor [14] is 95.5 nM. Also, the “Affinity selectivity ratio α1B vs α1D” value in experiment [2] stood at 3.0 fold. Also, the equilibrium dissociation constant (Kd) in experiment [2] (setting [17]) was 4370 nM; in [2] (setting [18]), 4370 nM; at human α1B‐adrenoceptor [4] (setting [19]), 12900 nM; at human α1B‐adrenoceptor [4] (setting [20]) it was 12900 nM; on human α1A‐adrenoceptor [6], 2950 nM. Also, the “cAMP accumulation % forskolin at 10 μM” value on human α1A‐adrenoceptor [3] (response at 10 μM ligand, no EC50 obtained) is given as 12.0 ± 1.1%. Further, the “ERK1/2‐phosphorylation % PDBu” value is 33.8 ± 5.0% at human α1B‐adrenoceptor [5], 88.7 ± 4.3% on human α1A‐adrenoceptor [13] and “No response” in experiment [15]. In addition, the “Affinity selectivity ratio α1A vs α1B” value at human α1A‐adrenoceptor [6] came out at 4.4 fold. For the same compound, the “Affinity selectivity ratio α1A vs α1D” value on human α1A‐adrenoceptor [6] is reported as 1.5 fold. Further, the “Intracellular calcium release Log EC50” value in [8] is “No response”. In addition, the “cAMP accumulation (in presence of forskolin) Fold increase” value at human α1B‐adrenoceptor [9] was 1.50 ± 0.05 fold; on human α1A‐adrenoceptor [11], 1.95 ± 0.09 fold. Moreover, the “cAMP accumulation (in presence of forskolin) Log EC50” value in [10] was “No response”. For the same compound, in experiment [12] (CHO cells without transfected receptors, maximal response as % of PDBu (10μM) response, mean ± s.e.m.), the “ERK1/2-phosphorylation % PDBu” value is listed as “No response”. In addition, in experiment [12] (CHO cells without transfected receptors, mean ± s.e.m.), the “ERK1/2-phosphorylation Log EC50” value was “No response”. Further, the “cAMP accumulation % forskolin” value at human α1B‐adrenoceptor [14] is on record as 2.7 ± 0.1%. Also, in experiment [15], the “ERK1/2‐phosphorylation Log EC50” value was “No response”.
